Assays:
[1] = test system: MIA PaCa-2 cells; test: Cell Viability Assay, MIA PaCa-2; assay type: cell-based; conditions: human pancreatic carcinoma, CellTiter-Glo
Procedure: (§1) MIA PaCa-2 (human pancreatic carcinoma; ATCC CRL-1420) or A549 (human lung carcinoma; ATCC CCL-185) cells were cultured in RPMI 1640 medium containing 10% fetal bovine serum and 1×penicillin/streptomycin/L-glutamine. Cells were seeded in 384-well plates at a density of 1.67E+04 cells/mL and incubated at 37° C., 5% CO2, overnight. Serially-diluted compound or DMSO was added to the cells, and plates were incubated at 37° C., 5% CO2 for 72 h. Cell viability was measured using a CellTiter-Glo® Luminescent Cell Viability Assay kit (Promega) according to the manufacturer's protocol. The luminescence signal of treated samples was normalized to DMSO control, and data were analyzed using a 4-parameter logistic model to calculate IC50 values.
(§2) The following data (Table 3) categorizes the IC50 of each compound for inhibiting enzymatic activity of KRAS^G12C in the indicated cells.

[2] = test system: A549 cells; test: Cell Viability Assay, A549; assay type: cell-based; conditions: A549; human lung carcinoma; 72 h; CellTiter-Glo
Procedure: as §1, §2

[3] = molecular target: KRAS^G12C (Homo sapiens, UniProt P01116, C118A/G12C); test: Coupled Nucleotide Exchange Assay; assay type: biochemical; conditions: GDP-bound KRAS (aa 1-169) G12C/C118A; 2 h compound pre-incubation; SOS-mediated exchange, 30 min; cRAF binding (AlphaLISA)
In short: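 GDP-bound His-tagged KRAS aa 1-169 (G12C/C118A) pre-incubated 2 h with compound in 25 mM HEPES pH 7.4, 10 mM MgCl2, 0.01% Triton X-100 (±0.1% BSA), then SOS (aa 564-1049) plus GTP added for 30 min. GST-cRAF RBD binding read by AlphaLISA; DMSO-normalized, 4-parameter fit gives IC50.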

KRAS^G12C, sequence (P01116 1-169 isoform P01116-2 G12C/C118A): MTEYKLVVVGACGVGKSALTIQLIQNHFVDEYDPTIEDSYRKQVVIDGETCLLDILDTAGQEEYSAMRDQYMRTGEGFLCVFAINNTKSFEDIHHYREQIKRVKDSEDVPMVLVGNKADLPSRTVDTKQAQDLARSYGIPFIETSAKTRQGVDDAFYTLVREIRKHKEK

| IC50 ([1]; Homo sapiens, MIA PaCa-2, 72 h) [nM] | IC50 [2] [nM] | IC50 [3] [nM] | IC50 ([1]; 72 h) [nM] | SMILES |
| --- | --- | --- | --- | --- |
| 259 | > 5000 | 70 |  | C=CC(=O)N1CCN([C@@H]2CN(c3cc(N4CCC5(CC4)OC[C@H](C)n4ncc(C)c45)nc(C(F)(F)F)n3)[C@@H]2C)CC1 [Compound 3-101, 1-(4-((2R,3R)-1-(6-((7′S)-3′,7′-dimethyl-6′,7′-dihydro-1H-spiro[piperidine-4,4′-pyrazolo[5.1-c][1,4]oxazin]-1-yl)-2-(trifluoromethyl)-4-pyrimidinyl)-2-methyl-3-azetidinyl)-1-piperazinyl)-2-propen-1-one] |
| > 5000 | > 5000 | 920 |  | C=CC(=O)N1CCN(C2CN(c3cc(N4CCC5(CC4)OCCC5F)nc(C(F)(F)F)c3C#N)C2)CC1 (stereo not drawn) [Compound 3-058, 4-(3-(4-Acryloylpiperazin-1-yl)azetidin-1-yl)-6-(4-fluoro-1-oxa-8-azaspiro[4.5]decan-8-yl)-2-(trifluoromethyl)nicotinonitrile] |
| 214 | > 5000 | 72 |  | C=CC(=O)N1CCN([C@@H]2CN(c3cc(N4CCC5(CC4)OCCn4ncc(C)c45)nc(C(F)(F)F)n3)[C@@H]2C)CC1 [Compound 3-076, 1-(4-((2R,3R)-2-Methyl-1-(6-(3′-methyl-6′,7′-dihydrospiro[piperidine-4,4′-pyrazolo[5,1-c][1,4]oxazin]-1-yl)-2-(trifluoromethyl)pyrimidin-4-yl)azetidin-3-yl)piperazin-1-yl)prop-2-en-1-one] |
| 78 | > 5000 | 48 |  | C=CC(=O)N1CCN([C@@H]2CN(c3cc(N4CC[C@]5(C[C@H]4C)OC[C@@H](CO)n4ncc(C)c45)nc(C(F)(F)F)n3)[C@@H]2C)CC1 (single isomer, unassigned) [Compound 3-087-1] |
| 81 | > 5000 | 21 |  | C=CC(=O)N1CCN([C@@H]2CN(c3cc(N4CC[C@]5(C[C@H]4C)OC4(COC4)c4nccc(C)c45)nc(C(F)(F)F)n3)[C@@H]2C)CC1 [Compound 3-104, 1-(4-((2R,3R)-1-(6-((2″R,5′R)-2″,4′-dimethyl-1″H-dispiro[oxetane-3,7′-furo[3,4-b]pyridine-5′,4″-piperidin]-1″- yl)-2-(trifluoromethyl)-4-pyrimidinyl)-2-methyl-3-azetidinyl)-1-piperazinyl)-2-propen-1-one] |
| 267 | > 5000 | 69 |  | C=CC(=O)N1CCN([C@@H]2CN(c3cc(N4CCC5(CC4)OC(C)(C)c4nccc(C)c45)nc(C(F)F)n3)[C@@H]2C)CC1 [Compound 3-096, 1-(4-((2R,3R)-1-(2-(difluoromethyl)-6-(4,7,7-trimethyl-1′H,7H-spiro[furo[3,4-b]pyridine-5,4′-piperidin]-1′-yl)-4-pyrimidinyl)-2-methyl-3-azetidinyl)-1-piperazinyl)-2-propen-1-one] |
| 180 | > 5000 | 81 |  | C=CC(=O)N1CCN([C@@H]2CN(c3cc(N4CCC5(CC4)OCc4nccc(C)c45)nc(C(F)(F)F)n3)[C@@H]2C)CC1 [Compound 3-079, 1-(4-((2R,3R)-2-methyl-1-(6-(4-methyl-1′H,7H-spiro[furo[3,4-b]pyridine-5,4′-piperidin]-1′-yl)-2-(trifluoromethyl)-4-pyrimidinyl)-3-azetidinyl)-1-piperazinyl)-2-propen-1-one] |
| 694 | > 5000 | 498 |  | C=CC(=O)N1CCN(C2CN(c3cc(N4CCC5(CC4)c4ccccc4CN5C)nc(C(F)(F)F)c3C#N)C2)CC1 [Compound 3-014] |
| 527 | > 5000 | 154 |  | C=CC(=O)N1CCN(C2CN(c3cc(N4CCC5(CC4)c4ccccc4C(=O)N5C)nc(C(F)(F)F)c3C#N)C2)CC1 [Compound 3-004, 4-(3-(4-Acryloylpiperazin-1-yl)azetidin-1-yl)-6-(2-methyl-3-oxospiro[isoindoline-1,4′-piperidin]-1′-yl)-2-(trifluoromethyl)nicotinonitrile] |
| 172 | > 5000 | 176 |  | C=CC(=O)N1CCN([C@@H]2CN(c3cc(N4CC[C@]5(C[C@H]4C)OCC(CF)n4ncc(C)c45)nc(C(F)F)n3)[C@@H]2C)CC1 (stereo partly drawn) [Compound 3-084, 1-(4-((2R,3R)-1-(2-(difluoromethyl)-6-((2R,4R)-7′-(fluoromethyl)-2,3′-dimethyl-6′,7′-dihydrospiro[piperidine-4,4′-pyrazolo[5,1-c][1,4]oxazin]-1-yl)pyrimidin-4-yl)-2-methylazetidin-3-yl)piperazin-1-yl)prop-2-en-1-one] |
|  | > 5000 | 128 | 603 | C=CC(=O)N1CCN(C2CN(c3cc(N4CCC5(CC4)OC(C)C=C5C)nc(C(F)(F)F)c3C#N)C2)CC1 (single isomer, unassigned) [Compound 3-054-1] |
| 271 | > 5000 | 107 |  | C=CC(=O)N1CCN([C@@H]2CN(c3cc(N4CCC5(CC4)c4c(C)ccnc4C4(COC4)C5F)nc(C(F)(F)F)n3)[C@@H]2C)CC1 (stereo partly drawn) [Compound 3-093, 1-(4-((2R,3R)-1-(6-(6′-fluoro-4′-methyl-1″H-dispiro[oxetane-3,7′-cyclopenta[b]pyridine-5′,4″- piperidin]-1″-yl)-2-(trifluoromethyl)-4-pyrimidinyl)-2-methyl-3-azetidinyl)-1-piperazinyl)-2-propen-1-one] |
| 1090 | > 5000 | 406 |  | C=CC(=O)N1CCN([C@@H]2CN(c3cc(N4CCC5(OCC=C5C)C(C)C4)nc(C(F)(F)F)n3)[C@@H]2C)CC1 (relative stereo) [Compound 3-060, 1-(4-((2R,3R)-1-(6-((5R,6S)-4,6-Dimethyl-1-oxa-8-azaspiro[4.5]dec-3-en-8-yl)-2-(trifluoromethyl)pyrimidin-4-yl)-2-methylazetidin-3-yl)piperazin-1-yl) prop-2-en-1-one] |
| 142 | > 5000 | 87 |  | C=CC(=O)N1CCN([C@@H]2CN(c3cc(N4CC[C@]5(C[C@H]4C)OC[C@H](CO)n4ncc(C)c45)nc(C(F)(F)F)n3)[C@@H]2C)CC1 (single isomer, unassigned) [Compound 3-087-2] |
| 193 | > 5000 | 145 |  | C=CC(=O)N1CCN([C@@H]2CN(c3cc(N4CC[C@]5(C[C@H]4C)OC[C@@H](COC)n4ncc(C)c45)nc(C(F)F)n3)[C@@H]2C)CC1 (single isomer, unassigned) [Compound 3-090-1] |
| 128 | > 5000 | 72 |  | C=CC(=O)N1CCN([C@@H]2CN(c3cc(N4CC[C@]5(C[C@H]4C)OC[C@H](CO)n4ncc(C)c45)nc(C(F)F)n3)[C@@H]2C)CC1 (single isomer, unassigned) [Compound 3-088-2] |
| 226 | > 5000 | 85 |  | C=CC(=O)N1CCN([C@@H]2CN(c3cc(N4CCC5(CC4)OC[C@@H](COC)n4ncc(C)c45)nc(C(F)(F)F)n3)[C@@H]2C)CC1 [Compound 3-097, 1-(4-((2R,3R)-1-(6-((7′R)-7′-(methoxymethyl)-3′-methyl-6′,7′-dihydro-1H-spiro[piperidine-4,4′-pyrazolo[5,1-c][1.4]oxazin]-1-yl)-2-(trifluoromethyl)-4-pyrimidinyl)-2-methyl-3-azetidinyl)-1-piperazinyl)-2-propen-1-one] |
